Target: T1, calf spleen adenosine deaminase (Bos taurus, UniProt P56658)
T1 construct: The calf spleen adenosine deaminase (Specific Activity of 178 Units/mg protein) is purchased from Sigma Chemical Company; purchased Sigma Chemical Company, St Louis, Mo; host or cells: calf spleen (tissue-derived enzyme)
T1 sequence (P56658 1-363): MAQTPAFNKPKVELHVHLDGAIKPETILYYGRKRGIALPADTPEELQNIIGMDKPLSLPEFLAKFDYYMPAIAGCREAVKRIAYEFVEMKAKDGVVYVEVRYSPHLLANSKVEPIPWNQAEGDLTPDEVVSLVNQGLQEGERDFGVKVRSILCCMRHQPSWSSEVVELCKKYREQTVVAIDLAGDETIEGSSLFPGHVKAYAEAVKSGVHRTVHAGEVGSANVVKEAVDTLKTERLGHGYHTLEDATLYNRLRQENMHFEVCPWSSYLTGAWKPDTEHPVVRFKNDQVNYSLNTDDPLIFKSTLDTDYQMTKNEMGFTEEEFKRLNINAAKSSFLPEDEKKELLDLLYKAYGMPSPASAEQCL
Test: Adenosine Deaminase (ADA) Assay, spectrophotometric at 265 nm
Type: biochemical
Conditions: Tris-HCl buffer 50 mM, pH 7.5, 25° C., adenosine substrate; dose-response (FIGS. 1 and 2); read-out: IC50, amount of the product per ml of the reaction mixture producing the enzyme inhibition by 50% (converted)
Protocol: The enzyme catalyzes the following reaction:
Adenosine+H2O→Inosine+NH3
The calf spleen adenosine deaminase (Specific Activity of 178 Units/mg protein) is purchased from Sigma Chemical Company, St Louis, Mo. The enzyme assay is carried out spectrophotometrically at 265 nm. The reaction mixture (in a 1-ml cuvette; diameter=1.0 cm) contains 0.9 ml of buffer (Tris-HCL buffer, 50 mM, pH 7.5), 25 μl of adenosine (2 mM), plus the enzyme, water and the extract to make 1 ml. The enzyme is added to start the reaction, and a decrease in absorbency at 265 nm is followed at 25° C. One unit of ADA activity is the amount of the enzyme that catalyzes 1 μmole of adenosine/min/ml of the reaction mixture.
The IC50 values have been determined by examining the dose-response effects of both products. The IC50 values represent the amount of the product per ml of the reaction mixture, producing the enzyme inhibition by 50%. In the enzyme assay, first a background reading is recorded on the chart for 1-2 min, followed by the addition of an appropriate amount of the enzyme to start the reaction, which is monitored spectrophotometrically.

IC50: 50.8 µM
Compound: Oc1ccc(/C=C/c2cc(O)cc(O)c2)cc1 [resveratrol, 3,5,4′-trihydroxystilbene]
